Values joined by “and” are separate entries in the source; they are usually repeats but may differ in a detail not shown here. Identical values can stand only once.
Columns and labels:
IL-2 [1] = assay: IL-2 secretion by mouse spleen cells in vitro, CTLD proliferation (Example 17); type: cell-based, male Balb/c mice; conditions: for activation at 1 µg/mL: Mus musculus, read-out: Spleen Cells, percent in parentheses (increase over control)
Procedure: The compounds listed below were tested in vitro at various concentrations that ranged from 10 μg/ml cells to 1×10^-6 μg/ml of cell mixtures. Cells were obtained from spleens of male Balb/c mice 6-8 weeks of age. Spleens were pushed through a stainless steel 60 mesh strainer to separate cells.

IL-2 receptors = assay: Induction of IL-2 receptors of human mononuclear cells, proliferation with recombinant IL-2 (Example 18); type: cell-based
Procedure: Human MNC were brought to a concentration of 10^6 cells/ml. RPMI+10% FCS. Aliquots of 0.2 ml. were placed in duplicate wells of microdishes and plates were incubated at 37° C. for 24 hrs. […] Plates were further incubated for 48 hrs. and labelled with 3H thymidine 24 hrs. before harvesting.
The proliferation was measured by ^3 HT uptake as described by Gillis et al, J. Immunol. […] The results are expressed in counts per minute.

human mononuclear cells [2] = assay: Proliferation of human mononuclear cells (Example 19); type: cell-based
Procedure: Human mononuclear cells were obtained by layering heparinized blood over a Ficoll/Hypaque gradient. The mononuclear cells were resuspended in enriched RPMI, rinsed three times and brought to a concentrations of 5×10^5 cells/ml encriched RPMI. […] Aliquots of 0.2 ml of each sample were placed in wells of microplates (triplicates). Microplates were incubated for 72 hours at 37° C. after which they were labelled with H^3 methyl-thymidine 1 μCi/well for an additional 24 hours. Cells were then harvested with a cell harvester.

human mononuclear cells [3] = assay: Proliferation of human mononuclear cells, 3H-methylthymidine (Examples 4 and 9); type: cell-based; conditions: 1 to 10 ng/ml cells, 72 hours (Example 9)
Procedure: Cells were further incubated overnight and harvested with a cell harvester.

IL-2 [4] = assay: Oral administration in drinking water, IL-2 content of spleen cell supernatants (Example 13); type: in vivo, male Balb-C mice; conditions: 4 days
Procedure: The water solution was prepared by dissolving the compounds in PBS at a concentration of 50 μg/ml PBS and diluting the resulting solution to the desired concentration. The compounds were administered over a 4 day period. The exact amount of liquid intake was recorded daily. […] The cells were incubated at a concentration of 10^7 cells/ml in enriched RPMI containing 2 μg/ml of con-A for 24 hours at 37° C. The supernatants were collected and tested for IL-2 content.

receptor sites for IL-2 = assay: Detection of IL-2 receptors with fluoresceinated antibody (Example 21); type: cell-based, human; conditions: 1 μg/ml, 24 hours
Procedure: This example provides an assay to detect the presence of receptor sites for IL-2. […] The cells were washed twice with PDS and then incubated with a specific fluoresceinated antibody against IL-2 receptors as described in Uchiyama et al, J. Immunol.

T-cell lymphocytes = assay: Lymphokine induction, proliferation and receptor activation in T-cell lymphocytes (statement)
Description: Thus the invention also contemplates the use alone of TeO2 and tellurium compounds that are active as lymphokine inducers.

[5] = 24 hours, 1 μg/ml of cell mixture
[6] = second part of table, 1 × 10^-1 μg/ml
[7] = second part of table, 1 × 10^-2 μg/ml
[8] = second part of table, 1 × 10^-3 μg/ml
[9] = second part of table, 1 × 10^-4 μg/ml
[10] = second part of table, 5 × 10^-1 μg/ml
[11] = second part of table, 5 × 10^-2 μg/ml

## COc1ccc([Te](Cl)(Cl)c2ccc(OC)cc2)cc1 [(pCH3 OPh)2 TeCl2, reference compound]
IL-2 [1]; [5]
  Spleen Cells (IL-2 activity): 2,148 cpm

## Cl[Te]1(Cl)OCCO1 [Example 2]
IL-2 receptors; Test B, 1 μg/ml
  proliferation (3HT uptake): 9315 counts per minute
IL-2 receptors; Test B, 1 × 10^-2 μg/ml
  proliferation (3HT uptake): 6418 counts per minute
IL-2 receptors; Test B, 1 × 10^-3 μg/ml
  proliferation (3HT uptake): 5167 counts per minute
IL-2 receptors; Test B, 1 × 10^-4 μg/ml
  proliferation (3HT uptake): 5372 counts per minute
IL-2 receptors; Test B, 1 × 10^-5 μg/ml
  proliferation (3HT uptake): 6397 counts per minute
IL-2 receptors; Test B, 5 × 10^-1 μg/ml
  proliferation (3HT uptake): 8688 counts per minute
IL-2 receptors; Test B, 5 × 10^-2 μg/ml
  proliferation (3HT uptake): 5538 counts per minute
IL-2 receptors; Test B, 7 × 10^-1 μg/ml
  proliferation (3HT uptake): 5250 counts per minute
Human mononuclear cells [2]; Ex. 2 table, 1 × 10^-4 μg/ml
  proliferation of human mononuclear cells: 4321 and 2332
Human mononuclear cells [2]; Ex. 2 table, 5 × 10^-1 μg/ml
  proliferation of human mononuclear cells: 18415 and 23957
Human mononuclear cells [2]; Ex. 2 table, 5 × 10^-2 μg/ml
  proliferation of human mononuclear cells: 5953 and 5532
IL-2 [1]; [5]
  Spleen Cells (IL-2 activity): 18,000 cpm
  activation at 1 µg/mL: 605%
Human mononuclear cells [3]
  increase of proliferation of human mononuclear cells: 10 fold
IL-2 [4]; 1 μg/ml H2O
  IL-2 content: 42500 cpm
  Percent increase as compared to control: +30%
IL-2 [4]; 10 μg/ml H2O
  IL-2 content: 36815 cpm
IL-2 [4]; 25 μg/ml H2O
  IL-2 content: 44500 cpm
  Percent increase as compared to control: +35%

## C1CO[Te]2(O1)OCCO2 [Example 14]
IL-2 receptors; Test B, 1 μg/ml
  proliferation (3HT uptake): 2620 counts per minute
IL-2 receptors; Test B, 1 × 10^-2 μg/ml
  proliferation (3HT uptake): 3928 counts per minute
IL-2 receptors; Test B, 1 × 10^-3 μg/ml
  proliferation (3HT uptake): 3007 counts per minute
IL-2 receptors; Test B, 1 × 10^-4 μg/ml
  proliferation (3HT uptake): 2327 counts per minute
IL-2 receptors; Test B, 1 × 10^-5 μg/ml
  proliferation (3HT uptake): 2242 counts per minute
IL-2 receptors; Test B, 5 × 10^-1 μg/ml
  proliferation (3HT uptake): 2402 counts per minute
IL-2 receptors; Test B, 5 × 10^-2 μg/ml
  proliferation (3HT uptake): 3290 counts per minute
IL-2 receptors; Test B, 7 × 10^-1 μg/ml
  proliferation (3HT uptake): 2000 counts per minute
IL-2 [1]; [5]
  Spleen Cells (IL-2 activity): 10,300 cpm
  activation at 1 µg/mL: 304%

## CC1CO[TeH](Cl)(Cl)(Cl)O1 (centres unmarked) [Example 16(a)]
IL-2 receptors; Test A, 1 μg/ml
  proliferation (3HT uptake): 21910 counts per minute
IL-2 receptors; Test A, 1 × 10^-2 μg/ml
  proliferation (3HT uptake): 9543 counts per minute
IL-2 receptors; Test A, 1 × 10^-3 μg/ml
  proliferation (3HT uptake): 6685 counts per minute
IL-2 receptors; Test A, 1 × 10^-4 μg/ml
  proliferation (3HT uptake): 6447 counts per minute
IL-2 receptors; Test A, 1 × 10^-5 μg/ml
  proliferation (3HT uptake): 8177 counts per minute
IL-2 receptors; Test A, 5 × 10^-1 μg/ml
  proliferation (3HT uptake): 145208 counts per minute
IL-2 receptors; Test A, 5 × 10^-2 μg/ml
  proliferation (3HT uptake): 8752 counts per minute
IL-2 receptors; Test A, 7 × 10^-1 μg/ml
  proliferation (3HT uptake): 130845 counts per minute
Human mononuclear cells [2]; second part of table, 1 μg/ml
  proliferation of human mononuclear cells: 4557
Human mononuclear cells [2]; second part of table, 5 μg/ml
  proliferation of human mononuclear cells: 4118
Human mononuclear cells [2]; [6]
  proliferation of human mononuclear cells: 12435
Human mononuclear cells [2]; [7]
  proliferation of human mononuclear cells: 6000
Human mononuclear cells [2]; [8]
  proliferation of human mononuclear cells: 6300
Human mononuclear cells [2]; [9]
  proliferation of human mononuclear cells: 4587
Human mononuclear cells [2]; [10]
  proliferation of human mononuclear cells: 18415
Human mononuclear cells [2]; [11]
  proliferation of human mononuclear cells: 5953
IL-2 [1]; [5]
  Spleen Cells (IL-2 activity): 13,540 cpm
  activation at 1 µg/mL: 435%

## CC1O[TeH](Cl)(Cl)(Cl)OC1C (centres unmarked) [Example 16(b)]
IL-2 receptors; Test A, 1 μg/ml
  proliferation (3HT uptake): 1018 counts per minute
IL-2 receptors; Test A, 1 × 10^-2 μg/ml
  proliferation (3HT uptake): 5883 counts per minute
IL-2 receptors; Test A, 1 × 10^-3 μg/ml
  proliferation (3HT uptake): 1093 counts per minute
IL-2 receptors; Test A, 1 × 10^-4 μg/ml
  proliferation (3HT uptake): 1138 counts per minute
IL-2 receptors; Test A, 1 × 10^-5 μg/ml
  proliferation (3HT uptake): 2146 counts per minute
IL-2 receptors; Test A, 5 × 10^-1 μg/ml
  proliferation (3HT uptake): 1195 counts per minute
IL-2 receptors; Test A, 5 × 10^-2 μg/ml
  proliferation (3HT uptake): 1602 counts per minute
IL-2 receptors; Test A, 7 × 10^-1 μg/ml
  proliferation (3HT uptake): 2102 counts per minute
IL-2 [1]; [5]
  Spleen Cells (IL-2 activity): 10,650 cpm
  activation at 1 µg/mL: 318%

## Cl[TeH]1(Cl)(Cl)OCCCO1 [Example 16(c)]
IL-2 [1]; [5]
  Spleen Cells (IL-2 activity): 15,720 cpm
  activation at 1 µg/mL: 516%

## Cl[TeH]1(Cl)(Cl)OCCCCO1 [Example 16(d)]
IL-2 [1]; [5]
  Spleen Cells (IL-2 activity): 18,075 cpm
  activation at 1 µg/mL: 608%

## CC(=O)O[Te](OC(C)=O)(c1ccccc1)c1ccccc1 [Ph2 Te (OCOCH3)2, reference compound]
IL-2 [1]; [5]
  Spleen Cells (IL-2 activity): 3,500 cpm
IL-2 [1]
  activity at level tested (footnote *): no significant activity

## O=C(O[Te](OC(=O)c1ccccc1)(c1ccccc1)c1ccccc1)c1ccccc1 [Ph2 Te (OCOPh)2, reference compound]
IL-2 [1]; [5]
  Spleen Cells (IL-2 activity): 4,300 cpm
IL-2 [1]
  activity at level tested (footnote *): no significant activity

## Cl[Te](Cl)(c1ccccc1)c1ccccc1 [Ph2 Te Cl2, reference compound]
IL-2 [1]; [5]
  Spleen Cells (IL-2 activity): 2,300 cpm
IL-2 [1]
  activity at level tested (footnote *): no significant activity

## Cl[Te](Cl)(Cl)c1ccccc1 [Ph Te Cl3, reference compound]
IL-2 [1]; [5]
  Spleen Cells (IL-2 activity): 18,000 cpm
  activation at 1 µg/mL: 605%

## O=[Te]=O [TeO2, Tellurium dioxide, reference compound]
IL-2 receptors; Test A, 1 μg/ml
  proliferation (3HT uptake): 1563 counts per minute
IL-2 receptors; Test A, 1 × 10^-2 μg/ml
  proliferation (3HT uptake): 3108 counts per minute
IL-2 receptors; Test A, 1 × 10^-3 μg/ml
  proliferation (3HT uptake): 2867 counts per minute
IL-2 receptors; Test A, 1 × 10^-4 μg/ml
  proliferation (3HT uptake): 5540 counts per minute
IL-2 receptors; Test A, 1 × 10^-5 μg/ml
  proliferation (3HT uptake): 3442 counts per minute
IL-2 receptors; Test A, 5 × 10^-1 μg/ml
  proliferation (3HT uptake): 4667 counts per minute
IL-2 receptors; Test A, 5 × 10^-2 μg/ml
  proliferation (3HT uptake): 2515 counts per minute
IL-2 receptors; Test A, 7 × 10^-1 μg/ml
  proliferation (3HT uptake): 2475 counts per minute
IL-2 receptors; Test B, 1 μg/ml
  proliferation (3HT uptake): 3275 counts per minute
IL-2 receptors; Test B, 1 × 10^-2 μg/ml
  proliferation (3HT uptake): 3077 counts per minute
IL-2 receptors; Test B, 1 × 10^-3 μg/ml
  proliferation (3HT uptake): 3800 counts per minute
IL-2 receptors; Test B, 1 × 10^-4 μg/ml
  proliferation (3HT uptake): 2925 counts per minute
IL-2 receptors; Test B, 1 × 10^-5 μg/ml
  proliferation (3HT uptake): 3645 counts per minute
IL-2 receptors; Test B, 5 × 10^-1 μg/ml
  proliferation (3HT uptake): 5405 counts per minute
IL-2 receptors; Test B, 5 × 10^-2 μg/ml
  proliferation (3HT uptake): 4280 counts per minute
IL-2 receptors; Test B, 7 × 10^-1 μg/ml
  proliferation (3HT uptake): 4302 counts per minute
Human mononuclear cells [2]; any concentration that was tested
  effect on proliferation: No significant effect
Human mononuclear cells [2]; second part of table, 1 μg/ml
  proliferation of human mononuclear cells: 2842
Human mononuclear cells [2]; second part of table, 5 μg/ml
  proliferation of human mononuclear cells: 3028
Human mononuclear cells [2]; [6]
  proliferation of human mononuclear cells: 4825
Human mononuclear cells [2]; [7]
  proliferation of human mononuclear cells: 4730
Human mononuclear cells [2]; [8]
  proliferation of human mononuclear cells: 6168
Human mononuclear cells [2]; [9]
  proliferation of human mononuclear cells: 5331
Human mononuclear cells [2]; [10]
  proliferation of human mononuclear cells: 4773
Human mononuclear cells [2]; [11]
  proliferation of human mononuclear cells: 5802
Receptor sites for IL-2
  cells positive for IL-2 receptors: 5%
T-cell lymphocytes
  activation of the receptor site in responder T-cell lymphocytes: will not cause proliferation of IL-2 producer cells or activate the receptor site
  proliferation of IL-2 producer cells: will not cause proliferation of IL-2 producer cells
T-cell lymphocytes; in vitro and in vivo
  lymphokine production in producer T-cell lymphocytes: will induce lymphokine production
IL-2 [1]; [5]
  Spleen Cells (IL-2 activity): 17,055 cpm
  Spleen Cells, percent in parentheses (increase over control): +508%

From patent US4752614A, “Pharmaceutical compositions of tellerium and selenium compounds for the induction of in vivo and in vitro production of cytokines” (Bar-Ilan University, priority 1987, dated 1988)
